Results from patent publication US10906906B2, “Organic compounds” (INTRA-CELLULAR THERAPIES, INC., priority 2016, dated 2021).

Molecular target: μ (MOP) (h) receptor (Homo sapiens, UniProt P35372)
Experiment: Cellular functional assay, μ (MOP) (h) antagonist effect (cAMP, HTRF)
Format: cell-based
Details: human recombinant (CHO cells)
Experimental: The compounds are tested at several concentrations to determine their IC50 or EC50. Cellular agonist effects are calculated as percent of control response to a known reference agonist for each target and cellular antagonist effect is calculated as a percent inhibition of control reference agonist response for each target. The following assay is performed to determine the effect of the Compound of Formula II-B on the μ (MOP) (h) receptor: [table] The results are expressed as a percent of control agonist response: and as a percent inhibition of control agonist response: obtained in the presence of the Compound of Formula II-B or II-C. […] For the antagonists, the apparent dissociation constants (KB) are calculated using the modified Cheng Prusoff equation: [formula] where A=concentration of reference agonist in the assay, and E[…]=EC50 value of the reference agonist.

μ (MOP) (h) receptor, sequence (P35372 whole entry): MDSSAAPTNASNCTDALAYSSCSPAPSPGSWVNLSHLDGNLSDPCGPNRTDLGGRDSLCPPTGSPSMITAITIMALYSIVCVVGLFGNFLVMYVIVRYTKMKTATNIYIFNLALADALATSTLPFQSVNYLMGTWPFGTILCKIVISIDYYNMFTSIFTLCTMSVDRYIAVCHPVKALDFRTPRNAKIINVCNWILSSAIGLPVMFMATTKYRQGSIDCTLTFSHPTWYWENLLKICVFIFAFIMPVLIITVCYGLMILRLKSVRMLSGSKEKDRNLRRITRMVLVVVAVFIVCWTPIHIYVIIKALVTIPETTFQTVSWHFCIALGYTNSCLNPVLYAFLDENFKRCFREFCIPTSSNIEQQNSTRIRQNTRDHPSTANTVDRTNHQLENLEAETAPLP

IC50 (DAMGO (20 nM) stimulus, cAMP, 10 min @ 37° C.)	Kb (modified Cheng Prusoff equation, DAMGO (20 nM), read-out: μ (MOP) (h) (antagonist effect) KB (apparent dissociation constant))	IC50 (unit inferred, highest concentration tested, DAMGO (20 nM))	Structure (SMILES)
1300 nM	140 nM		CN1C(=O)CN2c3c(cccc31)[C@@H]1CN(CCCc3n[nH]c4cc(F)ccc34)CC[C@@H]12 [Formula II-B]
		> 10000 nM	Fc1ccc2c(CCCN3CC[C@H]4[C@@H](C3)c3cccc5c3N4CCN5)n[nH]c2c1 [Formula II-C]
